Reference: publication PMC5863496, “Mesobuthus Venom-Derived Antimicrobial Peptides Possess Intrinsic Multifunctionality and Differential Potential as Drugs” (Frontiers in Microbiology, 2018)
Ends that are not written are not given here.

How the values were obtained:
Experiment in all cases: Inhibition-zone assay (CL)
Type in all cases: cell-based
Escherichia coli D. G2b = conditions: EC D. G2b, N.A. = no activity at 0.8 nmol peptide each well
Description: (§1) The antimicrobial activity of seven peptides, including MeuFSPL-1, MeuFSPL-2, Marmelittin, Melittin, Meucin-22, Marcin-22, and MeuTXKβ1, was evaluated by the inhibition-zone assay previously described in our studies (Hultmark, [1998]; Zhu et al., [2012a]; Zhu and Gao, [2014]). Temperatures used were 30 or 37°C for bacteria or 28°C for fungi. Media used were Luria-Bertani (LB) Broth (10 g tryptone, 5 g yeast extract, and 5 g NaCl in 1 l of water) or Nutrient Broth (10 g peptone, 5 g beef extract powder, and 5 g NaCl in 1 l of water) or GYM(Isp2) (4 g yeast extract, 10 g malt extract, 4 g glucose, 2 g CaCO3 in 1 l of water) for bacteria or Potato Dextrose Broth (200 g patato and 20 g glucose in 1 l of water) for fungi. To make plates, 10 μl of microbial culture (~2 × 10^6 bacterial cells or fungal spores/ml) were mixed in 6 ml of medium containing 0.8% agar and poured into Peri dishes of 9.0 cm diameter. Wells with a diameter of 2 mm were punched into the medium, filled with 2 μl of sample each well. In this assay, three different doses of peptides were applied to three independent wells in one standard bacterial plate. After incubation overnight, inhibition zones were measured and used to calculate lethal concentrations (CL), a concentration just sufficient to inhibit bacterial growth (Hultmark, [1998]; Gao et al., [2009]). CL values are calculated from a plot of d^2 against log n, where d is the diameter (in cm) and n is the amount of sample applied in the well (in nmol). The plot is linear and thus CL can be calculated from the slope (k) and the intercept (m) of this plot. The formula used here is CL = 2.93/ak10^m/k, where “a” is the thickness of the bacterial plate and “CL” is in μM.

[1] = test system: methicillin-resistant coagulase-negative Staphylococcus P1369; conditions: MRCNS P1369, N.A. = no activity at 0.8 nmol peptide each well
Description: as §1

[2] = test system: Escherichia coli Am. J16c; conditions: EC Am. J16c, N.A. = no activity at 0.8 nmol peptide each well
Description: as §1

[3] = test system: Escherichia coli CIP. J14b; conditions: EC CIP. J14b, N.A. = no activity at 0.8 nmol peptide each well
Description: as §1

[4] = test system: Staphylococcus warneri ATCC 1.2824; conditions: SW ATCC 1.2824, N.A. = no activity at 0.8 nmol peptide each well
Description: as §1

[5] = test system: methicillin-resistant Staphylococcus aureus P1386; conditions: MRSA P1386, N.A. = no activity at 0.8 nmol peptide each well
Description: as §1

[6] = test system: Staphylococcus aureus J698; conditions: SA J698, N.A. = no activity at 0.8 nmol peptide each well
Description: as §1

[7] = test system: Streptococcus salivarius ATCC 1.2498; conditions: SSAL ATCC 1.2498, N.A. = no activity at 0.8 nmol peptide each well
Description: as §1

[8] = test system: methicillin-sensitive Staphylococcus aureus CGMCC 1.89; conditions: MSSA CGMCC 1.89, N.A. = no activity at 0.8 nmol peptide each well
Description: as §1

[9] = test system: Staphylococcus aureus J685; conditions: SA J685, N.A. = no activity at 0.8 nmol peptide each well
Description: as §1

[10] = test system: Streptococcus mutans ATCC 1.2499; conditions: SM ATCC 1.2499, N.A. = no activity at 0.8 nmol peptide each well
Description: as §1

[11] = test system: penicillin-resistant Staphylococcus epidermidis P1389; conditions: PRSE P1389, N.A. = no activity at 0.8 nmol peptide each well
Description: as §1

[12] = test system: penicillin-sensitive Staphylococcus epidermidis P1111; conditions: PSSE P1111, N.A. = no activity at 0.8 nmol peptide each well
Description: as §1

[13] = test system: Bacillus subtilis CGMCC 1.2428; conditions: BS CGMCC 1.2428, N.A. = no activity at 0.8 nmol peptide each well
Description: as §1

[14] = test system: penicillin-resistant Staphylococcus aureus P1383; conditions: PRSA P1383; inhibition-zone assay; N.A. = no activity at 0.8 nmol peptide each well
Description: as §1

[15] = test system: Streptococcus sanguinis ATCC 1.2497; conditions: SSAN ATCC 1.2497, N.A. = no activity at 0.8 nmol peptide each well
Description: as §1

[16] = test system: Staphylococcus aureus J700; conditions: SA J700, N.A. = no activity at 0.8 nmol peptide each well
Description: as §1

[17] = test system: methicillin-resistant Staphylococcus aureus P1374; conditions: MRSA P1374, N.A. = no activity at 0.8 nmol peptide each well
Description: as §1

[18] = test system: Escherichia coli Am. J23a; conditions: EC Am. J23a, N.A. = no activity at 0.8 nmol peptide each well
Description: as §1

[19] = test system: Stenotrophomonas maltophilia CGMCC 1.1788; conditions: SMAL CGMCC 1.1788, N.A. = no activity at 0.8 nmol peptide each well
Description: as §1

[20] = test system: Bacillus megaterium CGMCC 1.0459; conditions: BM CGMCC 1.0459, N.A. = no activity at 0.8 nmol peptide each well
Description: as §1

[21] = test system: Micrococcus luteus CGMCC 1.0290; conditions: ML CGMCC 1.0290, N.A. = no activity at 0.8 nmol peptide each well
Description: as §1

[22] = test system: Escherichia coli ATCC 25922; conditions: EC ATCC 25922, N.A. = no activity at 0.8 nmol peptide each well
Description: as §1

## FFGHLFKLATKIIPSLFQ [MUC-18, reference compound]
Escherichia coli D. G2b
  Lethal concentration (CL): 37.28 µM
[1]
  Lethal concentration (CL): 4.89 µM
[2]
  Lethal concentration (CL): 22.72 µM
[3]
  Lethal concentration (CL): 22.72 µM
[4]
  Lethal concentration (CL): 11.69 µM
[5]
  Lethal concentration (CL): 1.35 µM
[6]
  Lethal concentration (CL): 5.16 µM
[7]
  Lethal concentration (CL): 9.24 µM
[8]
  Lethal concentration (CL): 0.87 µM
[9]
  Lethal concentration (CL): 8.71 µM
[10]
  Lethal concentration (CL): 9.32 µM
[11]
  Lethal concentration (CL): 3.35 µM
[12]
  Lethal concentration (CL): 0.87 µM
[13]
  Lethal concentration (CL): 2.11 µM
[14]
  Lethal concentration (CL): 3.72 µM
[15]
  Lethal concentration (CL): 13.72 µM
[16]
  Lethal concentration (CL): 6.86 µM
[17]
  Lethal concentration (CL): 3.35 µM
[18]
  Lethal concentration (CL): 22.72 µM
[19]
  Lethal concentration (CL): 13.72 µM

## FLFSLIPSAISGLINAFK-NH2 [MeuFSPL-2]
Escherichia coli D. G2b
  Lethal concentration (CL): 21.42 µM
[1]
  Lethal concentration (CL): 3.88 µM
[20]
  Lethal concentration (CL): 2.67 µM
[3]
  Lethal concentration (CL): 37.43 µM
[4]
  Lethal concentration (CL): 8.65 µM
[5]
  Lethal concentration (CL): 5.13 µM
[6]
  Lethal concentration (CL): 4.11 µM
[7]
  Lethal concentration (CL): 5.36 µM
[8]
  Lethal concentration (CL): 3.14 µM
[9]
  Lethal concentration (CL): 5.36 µM
[10]
  Lethal concentration (CL): 5.23 µM
[11]
  Lethal concentration (CL): 5.13 µM
[12]
  Lethal concentration (CL): 4.77 µM
[13]
  Lethal concentration (CL): 4.01 µM
[14]
  Lethal concentration (CL): 3.52 µM
[15]
  Lethal concentration (CL): 2.70 µM
[16]
  Lethal concentration (CL): 8.44 µM
[17]
  Lethal concentration (CL): 3.61 µM
[21]
  Lethal concentration (CL): 1.50 µM
[18]
  Lethal concentration (CL): 37.43 µM
[22]
  Lethal concentration (CL): 12.16 µM
[19]
  Lethal concentration (CL): 3.52 µM

## FLFSLIPSAISGLISAFK-NH2 [MeuFSPL-1]
Escherichia coli D. G2b
  Lethal concentration (CL): 25.00 µM
[1]
  Lethal concentration (CL): 8.48 µM
[20]
  Lethal concentration (CL): 2.10 µM
[2]
  Lethal concentration (CL): 43.66 µM
[4]
  Lethal concentration (CL): 2.81 µM
[5]
  Lethal concentration (CL): 6.24 µM
[6]
  Lethal concentration (CL): 4.80 µM
[7]
  Lethal concentration (CL): 4.80 µM
[8]
  Lethal concentration (CL): 5.27 µM
[9]
  Lethal concentration (CL): 14.72 µM
[10]
  Lethal concentration (CL): 4.22 µM
[11]
  Lethal concentration (CL): 7.36 µM
[12]
  Lethal concentration (CL): 7.36 µM
[13]
  Lethal concentration (CL): 4.74 µM
[14]
  Lethal concentration (CL): 2.81 µM
[15]
  Lethal concentration (CL): 5.20 µM
[16]
  Lethal concentration (CL): 10.92 µM
[17]
  Lethal concentration (CL): 6.16 µM
[21]
  Lethal concentration (CL): 2.26 µM
[18]
  Lethal concentration (CL): 25.00 µM
[22]
  Lethal concentration (CL): 12.50 µM
[19]
  Lethal concentration (CL): 1.13 µM
